Data published in patent US10501425B2, “Microbiocidal oxadiazole derivatives” (SYNGENTA PARTICIPATIONS AG, priority 2015, dated 2019).

How the values were obtained:
[1] = tested on: Glomerella lacenarium (Colletotrichum lagenarium); experiment: Glomerella lagenarium liquid culture / cucumber / preventative (anthracnose); format: cell-based; conditions: Colletotrichum orbiculare; 20 ppm in the applied formulation; liquid culture (PDB), growth inhibition measured photometrically 3 to 4 days after application; compared to untreated; read-out: disease control
How it was run: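 Conidia from cryogenic storage were mixed into potato dextrose broth. This was added to compound diluted from DMSO into 0.025% Tween20, tested at 20 ppm. Plates were incubated in the dark at 24 °C and 96% relative humidity, and growth was read photometrically after 2–7 days as % activity versus untreated check.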

[2] = tested on: Puccinia recondita f. Sp. Tritici; experiment: Puccinia recondita f. sp. tritici / wheat / leaf disc preventative (brown rust); format: in vivo; conditions: foliar, 200 ppm in the applied formulation, wheat leaf segments cv. Kanzler, preventative (inoculated 1 day after application), compared to untreated, read-out: disease control
How it was run: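 Compound, diluted from DMSO solution into aqueous 0.025% Tween20, is sprayed at 200 ppm onto cut wheat segments (cv. Kanzler) placed on water agar. One day on, segments receive a fungal spore suspension and are incubated at 19° C., 75% rh, 12 h photoperiod, with % control vs untreated scored at 7–9 days.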

[3] = tested on: Puccinia recondita f. Sp. Tritici; experiment: Puccinia recondita f. sp. tritici / wheat / leaf disc curative (brown rust); format: in vivo; conditions: foliar, 24 h, 200 ppm in the applied formulation, wheat leaf segments cv. Kanzler, curative (applied 1 day after inoculation), compared to untreated, read-out: disease control
How it was run: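 Compound applied 1 day after spore inoculation of wheat cv. Kanzler leaf segments on agar (dark, 19 °C, 75% RH before treatment). After further incubation under 12 h light/12 h dark at 19 °C and 75% RH, disease control relative to untreated segments rated 6–8 days post-application.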

Phakopsora pachyrhizi = Phakopsora pachyrhizi / soybean / leaf disc preventative (Asian soybean rust); format: in vivo; conditions: foliar, 200 ppm in the applied formulation, soybean leaf disks, compared to untreated, read-out: disease control
How it was run: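 Read-out is percent disease control relative to untreated check discs, assessed once untreated discs show adequate disease, 12 to 14 days after application. Compounds, tested at 200 ppm in the applied formulation, are sprayed onto soybean leaf discs one day before inoculation with a spore suspension.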

Q: With `O=C(NCc1ccc(-c2noc(C(F)(F)F)n2)cc1)C(F)(F)F` [Compound 1.102, 2,2,2-trifluoro-N-[[4-[5-(trifluoromethyl)-1,2,4-oxadiazol-3-yl]phenyl]methyl]acetamide] as the compound, how does the inhibition of growth at 20 ppm [1] read?
A: ≥ 80%

Q: What about the pest or weed control at 200 ppm [2] of the same compound?
A: ≥ 80%

Q: What about the pest or weed control at 200 ppm [3] of the same compound?
A: ≥ 80%

Q: And the melting point?
A: 146 to 149 °C

Q: What about the pest or weed control at 200 ppm (Phakopsora pachyrhizi) of the same compound?
A: ≥ 80%

Q: What does the source list for `COC(C)(C)C(=O)NCc1ccc(-c2noc(C(F)(F)F)n2)cc1` [Compound 1.103, 2-methoxy-2-methyl-N-[[4-[5-(trifluoromethyl)-1,2,4-oxadiazol-3-yl]phenyl]methyl]propanamide]?
A: inhibition of growth at 20 ppm [1]: ≥ 80%; pest or weed control at 200 ppm [2]: ≥ 80%; pest or weed control at 200 ppm [3]: ≥ 80%; melting point: 77 to 80 °C; pest or weed control at 200 ppm (Phakopsora pachyrhizi): ≥ 80%

Q: Which results are given for `CCC(=O)NCC(F)c1ccc(-c2noc(C(F)(F)F)n2)cc1` (centres unmarked) [Compound 1.107, N-[2-fluoro-2-[4-[5-(trifluoromethyl)-1,2,4-oxadiazol-3-yl]phenyl]ethyl]propanamide]?
A: inhibition of growth at 20 ppm [1]: ≥ 80%; pest or weed control at 200 ppm [2]: ≥ 80%; pest or weed control at 200 ppm [3]: ≥ 80%; melting point: 118 to 128 °C; pest or weed control at 200 ppm (Phakopsora pachyrhizi): ≥ 80%

Q: Which results are given for `COCCOC(=O)NCc1ccc(-c2noc(C(F)(F)F)n2)cc1` [Compound 2.3, 2-methoxyethyl N-[[4-[5-(trifluoromethyl)-1,2,4-oxadiazol-3-yl]phenyl]methyl]carbamate]?
A: inhibition of growth at 20 ppm [1]: ≥ 80%; pest or weed control at 200 ppm [2]: ≥ 80%; pest or weed control at 200 ppm [3]: ≥ 80%; melting point: 82 to 85 °C; pest or weed control at 200 ppm (Phakopsora pachyrhizi): ≥ 80%

Q: With `COC(=O)NCc1ccc(-c2noc(C(F)(F)F)n2)cc1` [Compound 2.4, methyl N-[[4-[5-(trifluoromethyl)-1,2,4-oxadiazol-3-yl]phenyl]methyl]carbamate] as the compound, how does the inhibition of growth at 20 ppm [1] read?
A: ≥ 80%

Q: What about the pest or weed control at 200 ppm [2] of the same compound?
A: ≥ 80%

Q: And the pest or weed control at 200 ppm [3]?
A: ≥ 80%

Q: And the melting point?
A: 116 to 119 °C

Q: And the pest or weed control at 200 ppm (Phakopsora pachyrhizi)?
A: ≥ 80%

Q: With `CCOC(=O)NCCc1ccc(-c2noc(C(F)(F)F)n2)cc1` [Compound 2.5, ethyl N-[2-[4-[5-(trifluoromethyl)-1,2,4-oxadiazol-3-yl]phenyl]ethyl]carbamate] as the compound, how does the inhibition of growth at 20 ppm [1] read?
A: ≥ 80%

Q: And the pest or weed control at 200 ppm [2]?
A: ≥ 80%

Q: What about the pest or weed control at 200 ppm [3] of the same compound?
A: ≥ 80%

Q: What about the melting point of the same compound?
A: 92 to 96 °C

Q: What about the pest or weed control at 200 ppm (Phakopsora pachyrhizi) of the same compound?
A: ≥ 80%

Q: What does the source list for `CCCOC(=O)NCc1ccc(-c2noc(C(F)(F)F)n2)cc1` [Compound 2.6, propyl N-[[4-[5-(trifluoromethyl)-1,2,4-oxadiazol-3-yl]phenyl]methyl]carbamate]?
A: inhibition of growth at 20 ppm [1]: ≥ 80%; pest or weed control at 200 ppm [2]: ≥ 80%; pest or weed control at 200 ppm [3]: ≥ 80%; melting point: 107.8 to 109.7 °C; pest or weed control at 200 ppm (Phakopsora pachyrhizi): ≥ 80%

Q: Which results are given for `C#CCOC(=O)NCc1ccc(-c2noc(C(F)(F)F)n2)cc1` [Compound 2.19, prop-2-ynyl N-[[4-[5-(trifluoromethyl)-1,2,4-oxadiazol-3-yl]phenyl]methyl]carbamate]?
A: inhibition of growth at 20 ppm [1]: ≥ 80%; pest or weed control at 200 ppm [2]: ≥ 80%; pest or weed control at 200 ppm [3]: ≥ 80%; melting point: 93 to 95 °C; pest or weed control at 200 ppm (Phakopsora pachyrhizi): ≥ 80%

Q: With `COC(=O)NCCc1ccc(-c2noc(C(F)(F)F)n2)cc1` [Compound 2.36, methyl N-[2-[4-[5-(trifluoromethyl)-1,2,4-oxadiazol-3-yl]phenyl]ethyl]carbamat] as the compound, how does the inhibition of growth at 20 ppm [1] read?
A: ≥ 80%

Q: What about the pest or weed control at 200 ppm [2] of the same compound?
A: ≥ 80%

Q: What about the pest or weed control at 200 ppm [3] of the same compound?
A: ≥ 80%

Q: What about the melting point of the same compound?
A: 84.8 to 86.5 °C

Q: What about the pest or weed control at 200 ppm (Phakopsora pachyrhizi) of the same compound?
A: ≥ 80%

Q: Which inhibition of growth at 20 ppm [1] does the source give for `CN(C)C(=O)NCc1ccc(-c2noc(C(F)(F)F)n2)cc1` [Compound 3.1, 1,1-dimethyl-3-[[4-[5-(trifluoromethyl)-1,2,4-oxadiazol-3-yl]phenyl]methyl]urea] here?
A: ≥ 80%

Q: What about the pest or weed control at 200 ppm [2] of the same compound?
A: ≥ 80%

Q: And the pest or weed control at 200 ppm [3]?
A: ≥ 80%

Q: And the melting point?
A: 118 to 125 °C

Q: And the pest or weed control at 200 ppm (Phakopsora pachyrhizi)?
A: ≥ 80%

Q: For `CON(C)C(=O)NCc1ccc(-c2noc(C(F)(F)F)n2)cc1` [Compound 3.2, 1-methoxy-1-methyl-3-[[4-[5-(trifluoromethyl)-1,2,4-oxadiazol-3-yl]phenyl]methyl]urea], which inhibition of growth at 20 ppm [1] is on record?
A: ≥ 80%

Q: What about the pest or weed control at 200 ppm [2] of the same compound?
A: ≥ 80%

Q: What about the pest or weed control at 200 ppm [3] of the same compound?
A: ≥ 80%

Q: And the melting point?
A: 90.2 to 93.8 °C

Q: What about the pest or weed control at 200 ppm (Phakopsora pachyrhizi) of the same compound?
A: ≥ 80%

Q: Which results are given for `COCCNC(=O)NCc1ccc(-c2noc(C(F)(F)F)n2)cc1` [Compound 3.3]?
A: inhibition of growth at 20 ppm [1]: ≥ 80%; pest or weed control at 200 ppm [2]: ≥ 80%; pest or weed control at 200 ppm [3]: ≥ 80%; melting point: 152 to 155 °C; pest or weed control at 200 ppm (Phakopsora pachyrhizi): ≥ 80%

Q: Which inhibition of growth at 20 ppm [1] does the source give for `CNC(=O)NCc1ccc(-c2noc(C(F)(F)F)n2)cc1` [Compound 3.4, 1-methyl-3-[[4-[5-(trifluoromethyl)-l,2,4-oxadiazol-3-yl]phenyl]methyl]urea] here?
A: ≥ 80%

Q: And the pest or weed control at 200 ppm [2]?
A: ≥ 80%

Q: And the pest or weed control at 200 ppm [3]?
A: ≥ 80%

Q: What about the melting point of the same compound?
A: 198 to 201 °C

Q: What about the pest or weed control at 200 ppm (Phakopsora pachyrhizi) of the same compound?
A: ≥ 80%

Q: With `CON(C)C(=O)NCCc1ccc(-c2noc(C(F)(F)F)n2)cc1` [Compound 3.5, 1-methoxy-1-methyl-3-[2-[4-[5-(trifluoromethyl)-1,2,4-oxadiazol-3-yl]phenyl]ethyl]urea] as the compound, how does the inhibition of growth at 20 ppm [1] read?
A: ≥ 80%

Q: What about the pest or weed control at 200 ppm [2] of the same compound?
A: ≥ 80%

Q: And the pest or weed control at 200 ppm [3]?
A: ≥ 80%

Q: And the melting point?
A: 80 to 84 °C

Q: And the pest or weed control at 200 ppm (Phakopsora pachyrhizi)?
A: ≥ 80%

Q: For `CON(C)C(=O)NC(C)(C)c1ccc(-c2noc(C(F)(F)F)n2)cc1` [Compound 3.25, 1-methoxy-1-methyl-3-[1-methyl-1-[4-[5-(trifluoromethyl)-1,2,4-oxadiazol-3-yl]phenyl]ethyl]urea], which inhibition of growth at 20 ppm [1] is on record?
A: ≥ 80%

Q: And the pest or weed control at 200 ppm [2]?
A: ≥ 80%

Q: And the pest or weed control at 200 ppm [3]?
A: ≥ 80%

Q: And the melting point?
A: 78 to 83 °C

Q: What about the pest or weed control at 200 ppm (Phakopsora pachyrhizi) of the same compound?
A: ≥ 80%

Q: Which results are given for `CON(C)C(=O)NC1(c2ccc(-c3noc(C(F)(F)F)n3)cc2)CC1` [Compound 3.26, 1-methoxy-1-methyl-3-[1-[4-[5-(trifluoromethyl)-1,2,4-oxadiazol-3-yl]phenyl]cyclopropyl]urea]?
A: inhibition of growth at 20 ppm [1]: ≥ 80%; pest or weed control at 200 ppm [2]: ≥ 80%; pest or weed control at 200 ppm [3]: ≥ 80%; melting point: 81 to 83 °C; pest or weed control at 200 ppm (Phakopsora pachyrhizi): ≥ 80%
